Key:
[1] = target: T1, Angiotensin-converting enzyme (Oryctolagus cuniculus, UniProt P12822); test: Tested in vitro for the inhibition of angiotensin converting enzyme from rabbit lung
T1 sequence (P12822 whole entry): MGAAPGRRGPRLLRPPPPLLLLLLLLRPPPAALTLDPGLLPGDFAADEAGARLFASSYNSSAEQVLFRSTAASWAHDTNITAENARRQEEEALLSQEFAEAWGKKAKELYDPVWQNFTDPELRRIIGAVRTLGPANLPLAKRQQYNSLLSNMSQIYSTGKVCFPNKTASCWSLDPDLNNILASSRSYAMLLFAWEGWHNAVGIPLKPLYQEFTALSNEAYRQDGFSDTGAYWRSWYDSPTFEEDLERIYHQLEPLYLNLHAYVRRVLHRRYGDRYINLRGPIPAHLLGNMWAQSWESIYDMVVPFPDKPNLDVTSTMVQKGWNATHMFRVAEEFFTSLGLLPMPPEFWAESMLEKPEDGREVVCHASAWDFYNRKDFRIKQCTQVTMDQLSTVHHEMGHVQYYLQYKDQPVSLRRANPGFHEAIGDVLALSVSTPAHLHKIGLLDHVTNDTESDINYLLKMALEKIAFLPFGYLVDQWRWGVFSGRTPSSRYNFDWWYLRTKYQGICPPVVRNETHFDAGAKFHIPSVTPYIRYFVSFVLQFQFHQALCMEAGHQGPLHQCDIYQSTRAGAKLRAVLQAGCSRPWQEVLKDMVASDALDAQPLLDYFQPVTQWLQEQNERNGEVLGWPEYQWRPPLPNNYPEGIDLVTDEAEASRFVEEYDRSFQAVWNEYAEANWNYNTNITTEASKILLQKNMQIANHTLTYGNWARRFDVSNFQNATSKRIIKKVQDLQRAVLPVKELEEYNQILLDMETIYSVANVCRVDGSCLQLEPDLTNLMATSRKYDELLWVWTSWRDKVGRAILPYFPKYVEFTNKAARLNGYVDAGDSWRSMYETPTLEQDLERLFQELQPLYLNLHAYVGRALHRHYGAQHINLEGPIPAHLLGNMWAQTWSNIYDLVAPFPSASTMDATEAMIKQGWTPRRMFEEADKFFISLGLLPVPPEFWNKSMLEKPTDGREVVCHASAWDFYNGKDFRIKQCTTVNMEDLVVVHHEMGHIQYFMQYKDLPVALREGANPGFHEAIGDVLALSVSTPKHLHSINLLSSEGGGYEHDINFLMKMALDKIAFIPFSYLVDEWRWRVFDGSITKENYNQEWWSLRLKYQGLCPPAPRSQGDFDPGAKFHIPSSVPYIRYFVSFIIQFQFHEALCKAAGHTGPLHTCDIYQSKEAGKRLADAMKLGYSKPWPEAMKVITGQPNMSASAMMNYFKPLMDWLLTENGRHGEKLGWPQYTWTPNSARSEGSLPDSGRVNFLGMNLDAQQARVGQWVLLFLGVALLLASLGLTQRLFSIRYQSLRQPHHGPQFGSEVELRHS

[2] = target: T2, Neprilysin (Rattus norvegicus, UniProt P07861); test: Tested in vitro for the inhibition against neutral endopeptidase (NEP) from rat kidney
T2 sequence (P07861 whole entry): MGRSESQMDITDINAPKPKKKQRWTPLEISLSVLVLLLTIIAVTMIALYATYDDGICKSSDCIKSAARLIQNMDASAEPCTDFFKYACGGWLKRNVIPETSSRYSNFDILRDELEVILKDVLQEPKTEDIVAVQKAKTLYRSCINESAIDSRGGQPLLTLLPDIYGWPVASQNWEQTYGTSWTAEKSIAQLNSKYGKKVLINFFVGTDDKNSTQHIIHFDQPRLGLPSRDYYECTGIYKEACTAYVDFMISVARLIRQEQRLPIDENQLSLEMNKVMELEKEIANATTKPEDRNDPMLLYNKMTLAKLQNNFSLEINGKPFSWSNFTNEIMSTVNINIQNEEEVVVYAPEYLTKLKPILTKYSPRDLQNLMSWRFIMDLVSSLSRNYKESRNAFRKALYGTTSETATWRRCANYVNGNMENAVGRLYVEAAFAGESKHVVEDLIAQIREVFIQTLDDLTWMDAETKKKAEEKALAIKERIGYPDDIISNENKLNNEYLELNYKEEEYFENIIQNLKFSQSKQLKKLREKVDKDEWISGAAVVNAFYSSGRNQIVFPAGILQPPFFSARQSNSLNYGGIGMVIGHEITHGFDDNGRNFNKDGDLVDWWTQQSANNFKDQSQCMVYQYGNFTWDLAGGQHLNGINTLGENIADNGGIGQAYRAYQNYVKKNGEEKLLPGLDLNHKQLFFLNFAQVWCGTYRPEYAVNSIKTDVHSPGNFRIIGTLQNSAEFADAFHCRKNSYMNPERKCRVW

[3] = test system: Rattus norvegicus; test: Tested for the inhibition of angiotensin I (AI) pressor response after 0.5 hour following an oral dose of 10 mg/kg; format: functional
[4] = test system: Rattus norvegicus; test: Tested for the inhibition of angiotensin I (AI) pressor response after 1 hour following an oral dose of 10 mg/kg; format: functional
[5] = test system: Rattus norvegicus; test: Tested for the inhibition of angiotensin I (AI) pressor response after 2 hours following an oral dose of 10 mg/kg; format: functional
[6] = test system: Rattus norvegicus; test: Tested for the plasma concentration based on ex vivo NEP inhibition after 0.5 hour following an oral dose of 10 mg/kg; format: functional, organism-based; set-up: dose 10 mg/kg
[7] = test system: Rattus norvegicus; test: Tested for the plasma concentration based on ex vivo NEP inhibition after 1 hour following an oral dose of 10 mg/kg; format: functional, organism-based; set-up: dose 10 mg/kg
[8] = test system: Rattus norvegicus; test: Tested for the plasma concentration based on ex vivo NEP inhibition after 2 hours following an oral dose of 10 mg/kg; format: functional, organism-based; set-up: dose 10 mg/kg
[9] = test system: Rattus norvegicus; test: Tested for the plasma concentration based on ex vivo NEP inhibition after 3 hours following an oral dose of 10 mg/kg; format: functional, organism-based; set-up: dose 10 mg/kg

Compound | IC50 [1] | IC50 [2] | inhibition in vivo at 10 mg/kg [3] | inhibition in vivo at 10 mg/kg [4] | inhibition in vivo at 10 mg/kg [5] | other results
O=C1N[C@H](C(=O)O)CSCCCCCCCC1CS (single isomer, unassigned; isomer B) [listing 1 of 2 here] | 12 nM | 18 nM | 71% | 17% | 0% | 
O=C1N[C@H](C(=O)O)CSCCCCCCCC1CS (single isomer, unassigned; isomer A) | 72 nM | 190 nM |  |  |  | 
O=C1N[C@H](C(=O)O)CSCCCCCCCCC1CS (stereo in doubt; 12b) | 17 nM | 167 nM |  |  |  | 
O=C1N[C@H](C(=O)O)CSCCCCCCCC1CS (single isomer, unassigned; isomer B) [listing 2 of 2 here] |  |  |  |  |  | Plasma concentration [6]: 1.81 µM; Plasma concentration [7]: 0.32 µM; Plasma concentration [8]: 0.17 µM; Plasma concentration [9]: 0.06 µM
O=C1N[C@H](C(=O)O)CSCCCCCCCCC1CS (stereo in doubt; 12a) | 4600 nM | 1300 nM |  |  |  | 
O=C(O)CN1C(=O)[C@@H](N[C@@H](CCc2ccccc2)C(=O)O)CCc2ccccc21 [BENAZEPRILAT] |  |  | 100% | 86% | 77% | 

Reference: ChEMBL document CHEMBL1126921, “Heterocyclic lactam derivatives as dual angiotensin converting enzyme and neutral endopeptidase 24.11 inhibitors” (J Med Chem, 1993)
